US11331354B2, “Fecal virome and therapeutic efficacy of fecal microbiota transplantation” (priority 2018, dated 2022)

Key:
[1] = tested on: Clostridium difficile infection; assay: Randomised controlled trial substudy of FMT versus vancomycin in patients with CDI: clinical outcome (symptoms, stool C. difficile toxin); assay type: in vivo, human
Experimental: The current study was a substudy from a randomised controlled trial (RCT) of FMT versus vancomycin for patients with CDI. Consecutive CDI subjects enrolled into this RCT were invited to participate in a substudy of assessment of fecal microbiota. Patients were included if they had three or more loose or watery stools per day for at least two consecutive days, or eight or more soft or loose stools in 48 hours, and a positive stool test for C. difficile based on a two-step testing algorithm in the hospital, a positive GDH (glutamate dehydrogenase) screening test followed by a positive PCR test of C. difficile. A total of 24 subjects with CDI and 20 healthy household controls were recruited, and stool samples at baseline were obtained for analyses of virome and bacterial microbiome. Among them, 14 CDI subjects consented to have stool samples collected serially after treatment for microbiome analysis. Nine CDI subjects were treated with FMT and five were treated with vancomycin, and they were followed up at baseline and weeks 2, 4, 10 and 16 after treatment (FIG. 6). One patient FMT6 had recurrent CDI. This patient had five previous episodes of CDI prior to FMT. Subjects in the FMT group received 5 days of vancomycin followed by donor-infused stool via nasojejunal route, and those who had standard therapy (STD) received oral vancomycin 500 mg four times per day for 10 days. A computer-generated randomisation schedule was used to assign patients to the treatment sequences. All patients kept a stool diary and were questioned about stool frequency and consistency and medication use.
Treatment response was defined as an absence of diarrhoea or persistent diarrhoea that could be explained by other causes with a negative stool test for C. difficile toxin, while relapse was defined as diarrhoea with a positive stool test for C. difficile toxin. Treatment cure is defined as symptom resolution and a negative Clostridium difficile toxin in stool until the last follow-up (last follow-up was referred to as the last stool collection time point, as shown in FIG. 6). […] CDI recipients FMT8 and FMT9 shared the same donor, and this donor was termed ‘D8’. None of the patients had received antibiotics or proton pump inhibitors after FMT.
1. C. difficile infection was defined as diarrhea (≥3 soft, loose or watery stools per day for at least 2 consecutive days or ≥8 soft or loose stools in 48 hours) and a positive stool test for C. difficile toxin; and
Family members provided donor stool for subjects randomised to FMT arm. Cure after FMT or vancomycin therapy was defined as symptom resolution and negative Clostridium difficile toxin in stool at last follow-up by PCR assay. Relapse was defined as diarrhea with a positive stool test for C. difficile toxin.
In subjects who received FMT, a nasoduodenal tube was inserted with radiology guidance. Donor feces was diluted with 500 ml of sterile saline (0.9%), blended and the supernatant was strained with filter paper and poured in a sterile bottle. Within 6 hours after collection of feces by the donor, the solution was infused through a nasoduodenal tube (2 to 3 minutes per 50 ml). The tube was removed 30 minutes after the infusion, and patients were monitored for 2 hours. In subjects with received FMT, a minimum of 50 g of donor stool was collected on the same day of infusion and used within 6 hours of collection.

[2] = tested on: enteric virome (Caudovirales, Microviridae, Anelloviridae); assay: Ultra-deep metagenomic sequencing of virus-like particle (VLP) preparations from stool: enteric virome abundance, diversity, richness, donor-derived contigs; assay type: in vivo, human
Experimental: VLPs were enriched from pulverised human stool, using a protocol according to previously described methods.^11 17 VLP DNAs were quantified (NanoDrop), and 1 μg of DNA was randomly fragmented by ultrasonication (Covaris) followed by library construction. The qualified libraries were amplified on cBot to generate the cluster on the flow cell (TruSeq PE Cluster Kit V3-cBot-HS, Illumina). The amplified libraries were sequenced paired end on the HiSeq 2000 System (TruSeq SBS KIT-HS V3, Illumina) (BGI, Shenzhen, China; standard 2×150 bp run), generating 20-60 million raw sequences (5-8 G raw data) per sample (sequence statistics in Table 3). Sequence processing and quality control, de novo contig assembly and taxonomy annotation were performed.
To estimate contig abundance and calculate sequence diversity, all reads were aligned to the resulting contigs using Bowtie2 (V. 2.2.9).^18 The mapped sequence counts, contig lengths and total sequence counts were used to normalise the sequence counts and represent the RPKM (reads per kilobase per million) of each sample to the contigs. These values were used to generate an operational taxonomic unit (OTU) relative abundance table, which was annotated with the taxonomy described above. The virome abundance data were imported into R 3.2.3. Richness, diversity and rarefaction calculation were performed using the estimated richness function of the phyloseq package. Diversity and richness plots were generated in GraphPad Prism (V. 6.0). Spearman correlations and their significance were calculated using the cor and cor.test functions in R, respectively. […] Correlation plots were generated using the corrplot R package. Heat maps were generated using the pheatmap R package. LEfSe linear discriminant analysis and multivariate analysis were performed.
To establish the presence of a species or a contig within a sample, the RPKM of a contig or a species is set to be >2 (a stringent criteria), so as to rule out the false-positive finding) for the contig or the species to be assured as present within a sample. In samples after FMT, if a contig or a species was not present in the recipient baseline sample but present in the corresponding donor baseline sample and in the recipient post-FMT sample, the contig or species was defined as ‘donor-derived’; if a contig or a species was not present in the corresponding donor baseline sample but detected both in the recipient baseline sample and in the recipient post-FMT sample, the contig or the species was defined as ‘recipient-exclusive’, if a contig or a species was present across the recipient baseline sample, the recipient post-FMT sample and the corresponding donor baseline sample, the contig or the species was defined as ‘donor recipient coexisted.’ To determine the abundance alteration of Caudovirales species after FMT, the species' relative abundance (RA) fold change was defined as fc=log 2(post-FMT last follow-up RA/pre-FMT baseline RA).
Approximately 200 mg of stool was suspended in 400 μl saline-magnesium buffer (0.1 M NaCl, 0.008 M MgSO4-7H2O, 0.002% gelatin, 0.05 M Tris pH7.5) by vortexing for 10 min. Stool suspensions were then cleared by centrifugation at 2,000×g to remove debris and cells. Clarified suspensions were passed through one […] followed by two […] filters to remove residual host and bacterial cells. […]

CN[C@H](CC(C)C)C(=O)N[C@H]1C(=O)N[C@@H](CC(N)=O)C(=O)N[C@H]2C(=O)N[C@H]3C(=O)N[C@H](C(=O)N[C@H](C(=O)O)c4cc(O)cc(O)c4-c4cc3ccc4O)[C@H](O)c3ccc(c(Cl)c3)Oc3cc2cc(c3O[C@@H]2O[C@H](CO)[C@@H](O)[C@H](O)[C@H]2O[C@H]2C[C@](C)(N)[C@H](O)[C@H](C)O2)Oc2ccc(cc2Cl)[C@H]1O [vancomycin]
subjects cured of CDI (responders) ([1]; median follow-up of 16 weeks, nine FMT subjects, five vancomycin patients): three of the five
Recurrence at week ([1]; subject STD1): at week 12
Outcome (till last follow-up) ([1]; subject STD1, severe CDI, follow-up 20 weeks): Recurrence
Recurrence at week ([1]; subject STD2): at week 7
Outcome (till last follow-up) ([1]; subject STD2, moderate CDI, follow-up 7 weeks): Recurrence
Outcome (till last follow-up) ([1]; subject STD3, severe CDI, follow-up 14 weeks): Cured
Outcome (till last follow-up) ([1]; subject STD4, severe CDI, follow-up 17 weeks): Cured
Outcome (till last follow-up) ([1]; subject STD5, moderate CDI, follow-up 26 weeks): Cured
virome structure over time ([2]; CDI subjects who did not respond to vancomycin): marked oscillation
virome structure over time ([2]; CDI subjects who responded to vancomycin): not significantly altered
change in Caudovirales abundance after treatment ([2]; stool of CDI subjects, pre- versus post-treatment): increased
Caudovirales diversity and richness as well as bacterial diversity and richness over the course of treatment ([2]; subjects who did not respond to vancomycin (STD1 and STD2)): substantial fluctuation
change in Caudovirales diversity or richness ([2]; subjects who responded to vancomycin (STD3, STD4, STD5)): no significant change
